Experimental data: US12613246B2, “Fluorescent probe and protein labeling method” (SHANGHAI GLORY CAPITAL MANAGEMENT LTD., priority 2018, dated 2026)

What was measured:
SNAP-IAA17-H2B = test: Probe fluorescence during IAA-induced protein degradation (AID system) in Hela cells; assay type: cell-based; settings: probe 1 μM; 140 min after IAA added
Description: In order to verify that the fluorescence activation of the probe is related to the existence of protein, SNAP protein of mammalian cells is taken as an example, and AID degradation system is an example of detecting the fluorescence changes of probes combined with SNAP after protein degradation in Hela cells. Firstly, plant Hela cells (20000/cm^2) in a glass bottom cell culture medium of 20 mm for 14 h, and then transect the plasmids pcdna3.1-TIR1 and pcdna3.1-SNAP-IAA17-H2B by means of Lipofectmain2000 transfection reagent (Invertogen Co.). After the cells are transfected for 24 h, replace the cells labeled by the original cell culture medium with phenol red DMEM culture medium containing Probe 16 (1 μM), and hatch the cee sample in a carbon dioxide incubator at 37° C. for 1 h. After labeling, detect the fluorescence signal of the labeled cells by using Leica SP8 laser confocal microscopy imaging, and add indoleacetic acid (IAA) to induce the protein degradation of SNAP-IAA17-H2B, and detect the changes of cell fluorescence during protein degradation.

Hela cells [1] = test: Two-colour orthogonal labeling of CLIP-histone and mito-SNAP in the same Hela cell; assay type: cell-based; settings: Probe 16 and Probe 9, 0.2 μM, 2 h, without washing
Description: Plant Hela cells (5000 cells/well) in a glass bottom plate of 96-well for 14 h; transfect pcdna3.1-CLIP-histone (CLIP protein labeled chromosome localization plasmid) and pcdna3.1-mito-SNAP (SNAP protein labeled […] localization plasmid) by using Lipo2000 kit (0.1 μg/well). After 24 h of transfection, remove the original culture medium, and wash the culture medium twice with phenol free red DMEM culture medium, and hatch the cells respectively with phenol free red medium containing Probe 16 and Probe 9 (0.2 μM) for 2 h, and detect the effect of cell labeling by using Leica TCS-8 confocal microscopy imaging.

SNAP protein tag [2] = test: Labeling of SNAP protein tag expressed in the liver of living mice; assay type: in vivo; settings: 0.4 μM in 200 μL PBS intravenously, 6 h
Description: Firstly, introduce the plasmid pcdna3.1-SNAP (sample group) with SNAP protein expressing and the contrastive plasmid pcdna3.1-CAT (contrastive group) without SNAP protein expressing into mice. In this method, the plasmid is dissolved in a large volume of solution and rapidly injected into mice intravenously. The plasmid is absorbed by mouse liver, and then express the target protein. After 24 h of plasmid injection, inject the Probe 16 (0.4 μM) dissolved in 200 μL of PBS into mice intravenously to label SNAP protein tag. After 6 h, dissect the mice, and detect liver fluorescence differences by using Kodak multispectral vivo imaging system.

[3] = Fluorescence of free probe before reaction with the protein tag; assay type: physicochemical
Description: (§1) Mix the probe with corresponding protein tag to obtain the mixed sample, wherein the final concentration of probe in the mixed sample is 5 μM, and the final concentration of protein tags is 10 μM; hatch the mixed sample at 37° C. for 1 h, and detect its fluorescence intensity change by using the fluorescence spectrophotometer.
(§2) According to the free probe quantum yield shown in Table 1, the fluorescence of the probes of and reference probes are extremely low before the reaction with the protein tag, and is close to the background fluorescence level of PBS buffer solution. […] However, according to the quantum yield of the binding protein tag, the fluorescence signal enhancement can be detected in the corresponding excitation emission channel after the probe reacts with the protein tag with hundreds to one thousand fold fluorescence activation times and very high brightness; the reference probes also can activate fluorescence, but the fluorescence quantum yield and brightness after activation are quite low.

Hela cells [4] = test: Labeling of Hela cells expressing protein tags versus Hela-WT cells, confocal microscopy; assay type: cell-based; settings: probe 5 μM, 37° C., 2 h
Description: Take Hela cells as an example to detect the labeling effect of the compounds in mammalian cells. Hela cells and Hela-WT cells (Hela primitive cells without expressing protein tags), which can express protein tags stably, are planted in a glass bottom 96-well plate of 14 mm for 10 h. Add Probe 16, Probe 17 and Probe 18 into a culture medium respectively and dilute them to 5 μM. Hatch the cells in a carbon dioxide incubator at 37° C. for 2 h. Detect the fluorescence changes of labeled cells by using Leica TPS-8 confocal microscopy.

Hela cells [5] = test: Labeling of protein tags located in different organelles of Hela cells without washing; assay type: cell-based; settings: probe 0.2 μM, 2 h
Description: Plant Hela cells (5000 cells/well) in a glass bottom plate of 96-well for 14 h, and then use Lipo2000 kit to transfect protein tags to locate plasmids in different organelles. After 24 h of transfection, remove the original culture medium, wash the culture medium twice with phenol free red DMEM culture medium, and hatch the cells with phenol free red medium containing probe (0.2 μM) for 2 h, and detect the effect of cell labeling by using Leica TCS-8 confocal microscopy imaging.

SNAP protein tag [6] = test: Fluorescence activation after mixing probe with corresponding protein tag (SNAP); assay type: biochemical; settings: probe 5 μM, protein tag 10 μM, 37° C., 1 h
Description: as §1, §2

[7] = Fluorescence emission spectra of probes in glycerol and methanol (viscosity response); assay type: physicochemical; settings: maximum excitation wavelength of each probe; for Fluorescence ratio in glycerol methanol: 1×10^−5 M; for Emission wavelength: medium not given
Text: Respectively dissolve Probe 1-32 and Reference Probes BG-CCVJ and BG-Gly-CCVJ in dimethyl sulfoxide so as to prepare a mother liquid with a concentration of 1×10^−2M; add the mother liquid to glycerol and methanol respectively and mix them well to prepare a solution with a concentration of 1×10^−5 M. Based on different probes, the fluorescence emission spectrum of each probe are detected under the same conditions with maximum excitation wavelength of each probe.
The probes are sensitive to the change of viscosity and have viscosity response.

Row | Compound | Fluorescence signal of SNAP-IAA17-H2B protein after IAA addition (SNAP-IAA17-H2B) | Display of mitochondria and chromosomes in the same cell (Hela cells [1]) | Liver fluorescence intensity of pcdna3.1-SNAP mice relative to the contrastive group (SNAP protein tag [2]) | Liver fluorescence of mice injected with contrastive plasmid pcdna3.1-CAT (SNAP protein tag [2]) | Quantum yield of free probe [3] | Fluorescence signal in Hela-WT cells (without protein tags) (Hela cells [4]) | Increase of fluorescence signal in cells expressing protein tags (Hela cells [4]) [times] | Display of subcellular organelle structures (Hela cells [5]) | Fluorescence activation multiple (SNAP protein tag [6]) | Quantum yield of binding protein tags (SNAP protein tag [6]) | Fluorescence ratio in glycerol methanol [7] | Emission wavelength [7] [nm]
1 | CN(CCOC(=O)NCc1ccc(COc2nc(N)nc3[nH]cnc23)cc1)c1ccc2c(c1)C(C)(C)c1cc(/C=C(\C#N)C(=O)OC(C)(C)C)sc1-2 [Probe 16] | almost negligible | clearly and simultaneously display the structure of mitochondria and chromosomes without washing | more than 20 fold | very low | <0.001 | no corresponding fluorescence signal is detected | ~700 | can clearly display a variety of subcellular organelle structures without washing | 842 | 0.71 | 1421 | 645
2 | CN(CCOC(=O)NCc1ccc(COc2nc(N)nc3[nH]cnc23)cc1)c1ccc2c(c1)C(C)(C)c1cc(/C=C(\C#N)c3nc4ccccc4s3)sc1-2 [Probe 18] |  |  |  |  | <0.001 | no corresponding fluorescence signal is detected | ~700 | can clearly display a variety of subcellular organelle structures without washing | 890 | 0.48 | 1123 | 675
